Source: PubChem BioAssay (NCI)
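Cells were grown in 96-well plates and exposed to each compound for 48 hours at five concentrations; endpoints were interpolated linearly between bracketing concentrations, or set to the highest concentration if not reached. GI50 marks 50% less growth. The concentration for full growth arrest is given as TGI.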

Tests used:
Test in all cases: inhibition of tumour cell growth, NCI panel, 48 h
A498 renal = tested on: A498 renal
RXF 393 renal = tested on: RXF 393 renal
LOX IMVI melanoma = tested on: LOX IMVI melanoma
HCT-15 colon = tested on: HCT-15 colon
UACC-62 melanoma = tested on: UACC-62 melanoma
KM12 colon = tested on: KM12 colon
MALME-3M melanoma = tested on: MALME-3M melanoma
NCI-H522 lung = tested on: NCI-H522 lung
SK-OV-3 ovarian = tested on: SK-OV-3 ovarian
HS 578T breast = tested on: HS 578T breast
HL-60(TB) leukemia = tested on: HL-60(TB) leukemia
BT-549 breast = tested on: BT-549 breast
HOP-92 NSCLC = tested on: HOP-92 NSCLC
NCI-H23 lung = tested on: NCI-H23 lung
DU-145 prostate = tested on: DU-145 prostate
SK-MEL-28 melanoma = tested on: SK-MEL-28 melanoma
SK-MEL-5 melanoma = tested on: SK-MEL-5 melanoma
HOP-62 NSCLC = tested on: HOP-62 NSCLC
TK-10 renal = tested on: TK-10 renal
HT29 colon = tested on: HT29 colon
MDA-MB-435 = tested on: MDA-MB-435
NCI-H460 lung = tested on: NCI-H460 lung
SNB-19 CNS = tested on: SNB-19 CNS
SNB-75 CNS = tested on: SNB-75 CNS
OVCAR-3 ovarian = tested on: OVCAR-3 ovarian
OVCAR-5 ovarian = tested on: OVCAR-5 ovarian
SN12C renal = tested on: SN12C renal
NCI-H226 lung = tested on: NCI-H226 lung
COLO 205 colon = tested on: COLO 205 colon
CAKI-1 renal = tested on: CAKI-1 renal
SW-620 colon = tested on: SW-620 colon
SF-268 CNS = tested on: SF-268 CNS
SK-MEL-2 melanoma = tested on: SK-MEL-2 melanoma
SR leukemia = tested on: SR leukemia
SF-539 CNS = tested on: SF-539 CNS
OVCAR-8 ovarian = tested on: OVCAR-8 ovarian
MDA-MB-231 breast = tested on: MDA-MB-231 breast
UACC-257 melanoma = tested on: UACC-257 melanoma
MOLT-4 leukemia = tested on: MOLT-4 leukemia
A549 NSCLC = tested on: A549 NSCLC
ACHN renal = tested on: ACHN renal
UO-31 renal = tested on: UO-31 renal
PC-3 prostate = tested on: PC-3 prostate
IGROV1 ovarian = tested on: IGROV1 ovarian
OVCAR-4 ovarian = tested on: OVCAR-4 ovarian
U251 CNS = tested on: U251 CNS
CCRF-CEM leukemia = tested on: CCRF-CEM leukemia
NCI/ADR-RES ovarian = tested on: NCI/ADR-RES ovarian
HCT-116 colon = tested on: HCT-116 colon
MCF7 breast = tested on: MCF7 breast
786-0 renal = tested on: 786-0 renal
EKVX NSCLC = tested on: EKVX NSCLC
HCC-2998 colon = tested on: HCC-2998 colon
RPMI-8226 leukemia = tested on: RPMI-8226 leukemia
K-562 leukemia = tested on: K-562 leukemia
M14 melanoma = tested on: M14 melanoma
T-47D breast = tested on: T-47D breast

N#Cc1ncc(/N=C/c2ccc(N(CCCl)CCCl)cc2)s1
GI50 (A498 renal): 1.63 µM
TGI (A498 renal): 4.4 µM
GI50 (RXF 393 renal): 12.4 µM
TGI (RXF 393 renal): 28.9 µM
GI50 (LOX IMVI melanoma): 6.89 µM
TGI (LOX IMVI melanoma): > 100 µM
GI50 (HCT-15 colon): 21.8 µM
TGI (HCT-15 colon): > 100 µM
GI50 (UACC-62 melanoma): 3.09 µM
TGI (UACC-62 melanoma): 28.7 µM
GI50 (KM12 colon): 76.5 µM
TGI (KM12 colon): > 100 µM
GI50 (MALME-3M melanoma): 30.8 µM
TGI (MALME-3M melanoma): > 100 µM
GI50 (NCI-H522 lung): 29.8 µM
TGI (NCI-H522 lung): > 100 µM
GI50 (SK-OV-3 ovarian): 27.7 µM
TGI (SK-OV-3 ovarian): > 100 µM
GI50 (HS 578T breast): 63.1 µM
TGI (HS 578T breast): > 100 µM
GI50 (HL-60(TB) leukemia): 7.44 µM
TGI (HL-60(TB) leukemia): > 100 µM
GI50 (BT-549 breast): 29.6 µM
TGI (BT-549 breast): > 100 µM
GI50 (HOP-92 NSCLC): 24.7 µM
TGI (HOP-92 NSCLC): 93.3 µM
GI50 (NCI-H23 lung): 5.53 µM
TGI (NCI-H23 lung): > 100 µM
GI50 (DU-145 prostate): 5.62 µM
TGI (DU-145 prostate): 57.1 µM
GI50 (SK-MEL-28 melanoma): 79.7 µM
TGI (SK-MEL-28 melanoma): > 100 µM
GI50 (SK-MEL-5 melanoma): 27.9 µM
TGI (SK-MEL-5 melanoma): > 100 µM
GI50 (HOP-62 NSCLC): 17.9 µM
TGI (HOP-62 NSCLC): > 100 µM
GI50 (TK-10 renal): 23.2 µM
TGI (TK-10 renal): 97.4 µM
GI50 (HT29 colon): 72.8 µM
TGI (HT29 colon): > 100 µM
GI50 (MDA-MB-435): 28.4 µM
TGI (MDA-MB-435): > 100 µM
GI50 (NCI-H460 lung): 3.31 µM
TGI (NCI-H460 lung): 66.8 µM
GI50 (SNB-19 CNS): 77.7 µM
TGI (SNB-19 CNS): > 100 µM
GI50 (SNB-75 CNS): 17.6 µM
TGI (SNB-75 CNS): > 100 µM
GI50 (OVCAR-3 ovarian): 14.5 µM
TGI (OVCAR-3 ovarian): 45 µM
GI50 (OVCAR-5 ovarian): 17.5 µM
TGI (OVCAR-5 ovarian): > 100 µM
GI50 (SN12C renal): 8.28 µM
TGI (SN12C renal): > 100 µM
GI50 (NCI-H226 lung): 0.897 µM
TGI (NCI-H226 lung): 7.71 µM
GI50 (COLO 205 colon): 64 µM
TGI (COLO 205 colon): > 100 µM
GI50 (CAKI-1 renal): 2.22 µM
TGI (CAKI-1 renal): 8.18 µM
GI50 (SW-620 colon): 9.69 µM
TGI (SW-620 colon): > 100 µM
GI50 (SF-268 CNS): 15.6 µM
TGI (SF-268 CNS): > 100 µM
GI50 (SK-MEL-2 melanoma): 69.9 µM
TGI (SK-MEL-2 melanoma): > 100 µM
GI50 (SR leukemia): 0.543 µM
TGI (SR leukemia): > 100 µM
GI50 (SF-539 CNS): 16.8 µM
TGI (SF-539 CNS): > 100 µM
GI50 (OVCAR-8 ovarian): 7.58 µM
TGI (OVCAR-8 ovarian): > 100 µM
GI50 (MDA-MB-231 breast): 50.2 µM
TGI (MDA-MB-231 breast): > 100 µM
GI50 (UACC-257 melanoma): 13.3 µM
TGI (UACC-257 melanoma): 63 µM
GI50 (MOLT-4 leukemia): 10.6 µM
TGI (MOLT-4 leukemia): > 100 µM
GI50 (A549 NSCLC): 28.2 µM
TGI (A549 NSCLC): > 100 µM
GI50 (ACHN renal): 5.13 µM
TGI (ACHN renal): 41.6 µM
GI50 (UO-31 renal): 6.26 µM
TGI (UO-31 renal): 30 µM
GI50 (PC-3 prostate): 34.9 µM
TGI (PC-3 prostate): > 100 µM
GI50 (IGROV1 ovarian): 40.4 µM
TGI (IGROV1 ovarian): > 100 µM
GI50 (OVCAR-4 ovarian): 41.8 µM
TGI (OVCAR-4 ovarian): > 100 µM
GI50 (U251 CNS): 18.6 µM
TGI (U251 CNS): > 100 µM
GI50 (CCRF-CEM leukemia): 16 µM
TGI (CCRF-CEM leukemia): > 100 µM
GI50 (NCI/ADR-RES ovarian): 7.36 µM
TGI (NCI/ADR-RES ovarian): > 100 µM
GI50 (HCT-116 colon): 30.2 µM
TGI (HCT-116 colon): > 100 µM
GI50 (MCF7 breast): 8.85 µM
TGI (MCF7 breast): > 100 µM
GI50 (786-0 renal): 4.52 µM
TGI (786-0 renal): 20.3 µM
GI50 (EKVX NSCLC): 42.2 µM
TGI (EKVX NSCLC): > 100 µM
GI50 (HCC-2998 colon): 23.9 µM
TGI (HCC-2998 colon): > 100 µM
GI50 (RPMI-8226 leukemia): 53.7 µM
TGI (RPMI-8226 leukemia): > 100 µM
GI50 (K-562 leukemia): 7.51 µM
TGI (K-562 leukemia): > 100 µM
GI50 (M14 melanoma): 35.2 µM
TGI (M14 melanoma): > 100 µM
GI50 (T-47D breast): 6.71 µM
TGI (T-47D breast): > 100 µM
